Results reported in US4315026A, “Alkylpolyoxysulfinyl and alkylpolythiosulfinyl derivatives of carbamate esters” (priority 1980, dated 1982).
Like-named read-outs stand apart in the source and are kept apart here.

Tests used:
Format in all cases: in vivo
Swiss white mice = experiment: Mammalian toxicity, oral, Swiss white mice (LD50); settings: propylene glycol carrier
Protocol: (§1) For mice toxicity, the compound was dissolved in propyleneglycol or corn oil as a carrier and all compounds were tested at the level up to 1,000 mg/kg. All of the above noted compounds tested were lower in toxicity as compared with the parent compounds.
(§2) Mammalian toxicity was determined against Swiss white mice.

[1] = test system: house flies, Musca domestica; experiment: whole plant or invertebrate; settings: read-out: House flies LD50
Protocol: In another series of tests, stock 1% concentrated solutions of each of the test compounds of Table I below, and of the commercial related carbamate ester insecticides methomyl, carbofuran and oxamyl, were made in acetone, and such solutions were diluted with acetone to a concentration of 0.001-0.8%. House flies were treated topically on the notum by 1 μl of each of the diluted acetone solutions and percent mortality was counted 24 hours after application.

[2] = Mammalian toxicity, oral, Swiss white mice (LD50); settings: mouse, in vivo, propylene glycol carrier
Protocol: as §1, §2

[3] = topical on the notum, 1 μl of 0.001-0.8% acetone solutions, 24 hours, 60° F

| Compound | Mice LD50 (Swiss white mice) | LD50 [1, 3] [mg/kg] | LD50 [2] [mg/kg] | LD50 ([1]; topical, 24 h) [mg/kg] |
| --- | --- | --- | --- | --- |
| 3-Methylphenyl N-(2-phenyl-1,3-dioxane-5-ylmethoxysulfinyl)-N-methylcarbamate [XVIII] | > 1,000 mg/kg | – | – | – |
| CSC(C)=NOC(=O)N(C)S(=O)OCCOS(=O)N(C)C(=O)ON=C(C)SC (centres unmarked) [Example I, N,N'-(1,2-ethanedioxysulfinyl)-bis (S-methyl N-methylcarbamoyloxy-thioacetimidate)] | – | 60 | 52 | – |
| CN(C(=O)Oc1cccc2c1OC(C)(C)C2)S(=O)OCCCOS(=O)N(C)C(=O)Oc1cccc2c1OC(C)(C)C2 (centres unmarked) [Example II, N,N'-(1,3-Propanedioxysulfinyl)-bis (2,3-dihydro-2,2-dimethylbenzofuranyl-7 methylcarbamate)] | – | – | 92 | 17 |
| CSC(C)=NOC(=O)N(C)S(=O)OCC1COC(C)(C)O1 (centres unmarked) [Example III, S-methyl N-(2,2-dimethyl-1,3-dioxolane-5-yl-methoxysulfinyl)-N-methylcarbamoyloxythioacetimidate] | – | 7 | 84 | – |
| CSC(C)=NOC(=O)N(C)[S+]([O-])SCCS[S+]([O-])N(C)C(=O)ON=C(C)SC (centres unmarked) [Example VIII, N,N'-(1,2-Ethanedithiosulfinyl)-bis (S-methyl N-methylcarbamoyloxy thioacetimidate)] | – | 75 | 250 | – |
| CN(C(=O)Oc1cccc2c1OC(C)(C)C2)[S+]([O-])SCCS[S+]([O-])N(C)C(=O)Oc1cccc2c1OC(C)(C)C2 (centres unmarked) [IX] | – | – | 87 | 36 |
| C=CCOCC(COS(=O)N(C)C(=O)ON=C(C)SC)OS(=O)N(C)C(=O)ON=C(C)SC (centres unmarked) [XI, N,N'-(3-Allyloxy-1,2-propanedioxysulfinyl)-bis (S-methyl N-methylcarbamoyloxythioacetimidate)] | – | 40 | 50 to 80 | – |
| C=CCOC(COS(=O)N(C)C(=O)ON=C(C)SC)COS(=O)N(C)C(=O)ON=C(C)SC (centres unmarked) [XII, N,N'-(2-Allyloxy-1,3-propanedioxysulfinyl)-bis (S-methyl N-methylcarbamoyloxythioacetimidate)] | – | < 50 | 88 | – |
| CSC(C)=NOC(=O)N(C)S(=O)OCC(COCc1ccccc1)OS(=O)N(C)C(=O)ON=C(C)SC (centres unmarked) [XIII, N,N'-(3-Benzyloxy-1,2-propanedioxysulfinyl)-bis (S-methyl N-methylcarbamoyloxythioacetimidate)] | – | < 50 | 50 to 100 | – |
| CSC(C)=NOC(=O)N(C)S(=O)OCC(COC(C)C)OS(=O)N(C)C(=O)ON=C(C)SC (centres unmarked) [XIV, N,N'-(3-Isopropoxy-1,2-propanedioxysulfinyl)-bis (S-methyl N-methylcarbamoyloxythioacetimidate)] | – | 81.5 | 170 | – |
| CSC(C)=NOC(=O)N(C)S(=O)OCC12OCC3OC(C)(C)OC3C1OC(C)(C)O2 (stereo not drawn) [XVI, S-Methyl N-(2,3,4,5-di-O-isopropylidene-1-α-O-fructopyranosylsulfinyl)-N-methylcarbamoyloxythioacetimidate] | – | 50 | 500 | – |
| CSC(C)=NOC(=O)N(C)S(=O)OC1C2OC(C)(C)OC2COC12COC(C)(C)O2 (centres unmarked) [XVII, S-Methyl N-(1,2,4,5-di-O-isopropylidene-3-O-fructopyranosylsulfinyl)-N-methylcarbamoyloxythioacetimidate] | – | 115 | 1000 | – |
| C=CCOCC(COS(=O)N(C)C(=O)ON=C(SC)C(=O)N(C)C)OS(=O)N(C)C(=O)ON=C(SC)C(=O)N(C)C (centres unmarked) [XXIX, N,N'-(3-Allyloxy-1,2-propanedioxysulfinyl)-bis[S-methyl N-methylcarbamoyloxy-2-(N',N'-dimethylamino)-2-oxoethanimidothioate]] | – | 215 | 12.5 to 25 | – |
| CSC(=NOC(=O)N(C)S(=O)OC1COC(c2ccccc2)OC1)C(=O)N(C)C (centres unmarked) [XXVII, S-Methyl N-(2-phenyl-1,3-dioxane-5-ylmethoxysulfinyl)-N-methylcarbamoyloxy-2-(N',N'-dimethylamino)-2-oxoethanimidothioate] | – | 161 | 25 | – |
| CSC(=NOC(=O)N(C)S(=O)OCC1COC(C)(C)O1)C(=O)N(C)C (centres unmarked) [XXVIII, S-Methyl N-(2,2-dimethyl-1,3-dioxolane-5-ylmethoxysulfinyl)-N-methylcarbamoyloxy-2-(N'N'-dimethylamino)-2-oxoethanimidothioate] | – | 2.6 | 31 | – |
| CSC(=NOC(=O)N(C)S(=O)OCC12OCC3OC(C)(C)OC3C1OC(C)(C)O2)C(=O)N(C)C (stereo not drawn) [XXXIV, S-Methyl N-(2,3,4,5-Di-O-isopropylidene-1-α-O-fructopyranosylsulfinyl)-N-methylcarbamoyloxy-2-(N',N'-dimethylamino)-2-oxoethanimidothioate] | – | 20 | 44 | – |
| CSC(=NOC(=O)N(C)S(=O)OC1C(C2COC(C)(C)O2)OC2OC(C)(C)OC21)C(=O)N(C)C (centres unmarked) [XXXV, S-Methyl N-(1,2,5,6-di-O-isopropylidene-3-O-glucofuranosylsulfinyl) N-methylcarbamoyloxy-2-(N',N'-dimethylamino)-2-oxoethanimidothioate] | – | 26.5 | 25 to 50 | – |
| CN(C(=O)Oc1cccc2ccccc12)S(=O)OCC(COCc1ccccc1)OS(=O)N(C)C(=O)Oc1cccc2ccccc12 (centres unmarked) [XXXVIII, N,N'-(3-Benzyloxy-1,2-propanedioxysulfinyl)-bis(1-naphthyl methylcarbamate)] | – | – | > 1000 | – |
| CN(C(=O)Oc1cccc2ccccc12)S(=O)OCC(COS(=O)N(C)C(=O)Oc1cccc2ccccc12)OS(=O)N(C)C(=O)Oc1cccc2ccccc12 (centres unmarked) [XXXX, N,N',N"-(1,2,3-Propanetrioxysulfinyl)-tris-(1-naphthyl methylcarbamate)] | – | – | > 1000 | – |
| CN(C(=O)Oc1cccc2ccccc12)S(=O)OCC12OCC3OC(C)(C)OC3C1OC(C)(C)O2 (stereo not drawn) [XXXXI, 1-Naphthyl N-(2,3,4,5-di-O-isopropylidene-1-α-O-fructopyranosylsulfinyl)-N-methylcarbamate] | – | – | > 1000 | – |
| CN(C(=O)Oc1cccc2ccccc12)S(=O)OC1C2OC(C)(C)OC2COC12COC(C)(C)O2 (stereo not drawn) [XXXXII, 1-Naphthyl N-(1,2,4,5-di-O-isopropylidene-3-α-O-fructopyranosylsulfinyl)-N-methylcarbamate] | – | – | > 1000 | – |
| CC(C)Oc1ccccc1OC(=O)N(C)S(=O)OCC(COS(=O)N(C)C(=O)Oc1ccccc1OC(C)C)OS(=O)N(C)C(=O)Oc1ccccc1OC(C)C (centres unmarked) [XXXXIII, N,N',N"(1,2,3-Propanetrioxysulfinyl)-tris-(2-isopropoxyphenyl methylcarbamate)] | – | – | > 1000 | – |
| CC(C)Oc1ccccc1OC(=O)N(C)S(=O)OCC12OCC3OC(C)(C)OC3C1OC(C)(C)O2 (stereo not drawn) [XXXXIV, 2-Isopropoxyphenyl N-(2,3,4,5-di-O-isopropylidene-1-α-O-fructopyranosylsulfinyl)-N-methylcarbamate] | – | – | > 1000 | – |
| CNC(=O)Oc1cccc2c1OC(C)(C)C2 [carbofuran, reference compound] | – | – | 2 | 6.7 |
| CNC(=O)ON=C(C)SC [methomyl, reference compound] | – | 3.7 | – | – |
| CNC(=O)ON=C(SC)C(=O)N(C)C [oxamyl, reference compound] | – | 3.6 | 3.7 | – |
